In patent US20250163064A1, “QUINAZOLINE COMPOUNDS AND USES THEREOF AS INHIBITORS OF MUTANT KRAS PROTEINS” (AMGEN INC., priority 2022, published 2025):

Assays:
[1] = molecular target: His-tagged KRAS G12D protein (Homo sapiens (Human), UniProt P01116, G12D); experiment: KRAS G12D TR-FRET Assay; format: binding; details: biotinylated KRPep-2d, 10 μM GDP
Procedure: Compounds of interest were prepared in a dose-response titration in DMSO, and 80 nL were added via Labcyte Echo to each well of a 384-well plate (Perkin Elmer 6008280). The His-tagged KRAS G12D protein (Amgen) was diluted to 20 nM in Assay Buffer (20 mM HEPES, pH 7.4, 10 mM MgCl2, 50 mM NaCl, 0.1% BSA, 0.01% Tween-20, 10 μM GDP) and 2 μL was added to the appropriate wells of the 384-well plate. The plate was incubated for 30 minutes at rt. Biotinylated KRPep-2d substrate (Amgen) was diluted to […] in Assay Buffer and 2 AL was added to all wells and incubated for 1 hour at room temperature. Detection Reagent (0.4 nM LANCE Eu-W1024 Anti-6×His (Perkin Elmer AD0401), 5 nM streptavidin-d2 (Cisbio 610SADLA)) was prepared in Assay Buffer, then 4 AL was added to the plate and incubated for 1 h at rt. Plates were read using PerkinElmer En Vision (ex: 320 nm, em1: 665 nm, em2: 615 nm) and em1/em2 data was used to generate curve fits using a 4-parameter logistic model to calculate IC50 values.

[2] = molecular target: GDP-bound KRAS protein (aa 1-169), G12D and C118A; SOS-mediated nucleotide exchange (Homo sapiens (Human), UniProt P01116, C118A/G12D); experiment: KRAS G12D Coupled Nucleotide Exchange Assay; format: biochemical; details: 2 h compound pre-incubation, GTP, cRAF AlphaScreen
Procedure: Purified GDP-bound KRAS protein (aa 1-169), containing both G12D and C118A amino acid substitutions and an N-terminal His-tag, was pre-incubated in assay buffer (25 mM HEPES pH 7.4, 10 mM MgCl2, and 0.01% Triton X-100) with a compound dose-response titration for 2 h. Following compound pre-incubation, purified SOS protein (aa 564-1049) and GTP (Roche 10106399001) were added to the assay wells and incubated for an additional 30 min. […] The assay plates were then read on a PerkinElmer En Vision Multilabel Reader, using AlphaScreen® technology, and data were analyzed using a 4-parameter logistic model to calculate IC50 values.

[3] = test system: Phosphorylation of ERK1/2 in AsPC-1 cells; experiment: Phospho-ERK1/2 MSD Assay; format: cell-based; details: Homo sapiens, ASPC1, 2 h, read-out: 2 h p-ERK (AsPC-1 cells), IC50 (μM), AsPC-1 cells, 2 h compound treatment
Procedure: AsPC-1 (ATCC® CRL-1682TM) cells were cultured in RPMI 1640 Medium (ThermoFisher Scientific 11875093) containing 10% fetal bovine serum (ThermoFisher Scientific 16000044) and 1× penicillin-streptomycin-glutamine (ThermoFisher Scientific 10378016). Sixteen hours prior to compound treatment, AsPC-1 cells were seeded in 96-well cell culture plates at a density of 25,000 cells/well and incubated at 37° C., 5% CO2. A compound dose-response titration was diluted in growth media, added to appropriate wells of a cell culture plate, and then incubated at 37° C., 5% CO2 for 2 hours. Following compound treatment, cells were washed with ice-cold Dulbecco's phosphate-buffered saline, no Ca^2+ or Mg^2+ (ThermoFisher Scientific 14190144), and then lysed in RIPA buffer (50 mM Tris-HCl pH 7.5, 1% Igepal, 0.5% sodium deoxycholate, 150 mM NaCl, and 0.5% sodium dodecyl sulfate) containing protease inhibitors (Roche 4693132001) and phosphatase inhibitors (Roche 4906837001). Phosphorylation of ERK1/2 in compound-treated lysates was assayed using Phospho-ERK1/2 Whole Cell Lysate kits (Meso Scale Discovery K151DWD) according to the manufacturer's protocol. Assay plates were read on a Meso Scale Discovery Sector Imager 6000, and data were analyzed using a 4-parameter logistic model to calculate IC50 values.

Sequence of His-tagged KRAS G12D protein (P01116-2 other isoform, or with tags, fused parts or gaps G12D): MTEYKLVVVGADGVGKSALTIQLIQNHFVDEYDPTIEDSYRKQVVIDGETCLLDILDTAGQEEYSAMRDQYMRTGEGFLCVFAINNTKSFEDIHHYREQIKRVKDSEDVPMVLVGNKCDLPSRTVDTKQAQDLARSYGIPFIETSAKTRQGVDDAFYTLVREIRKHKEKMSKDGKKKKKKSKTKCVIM
Sequence of GDP-bound KRAS protein (aa 1-169), G12D and C118A; SOS-mediated nucleotide exchange (P01116 other isoform, or with tags, fused parts or gaps G12D/C118A): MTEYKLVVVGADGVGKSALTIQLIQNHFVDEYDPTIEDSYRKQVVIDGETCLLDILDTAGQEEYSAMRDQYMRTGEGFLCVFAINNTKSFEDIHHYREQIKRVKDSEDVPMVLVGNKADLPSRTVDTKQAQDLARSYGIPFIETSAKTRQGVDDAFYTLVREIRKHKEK

IC50 [1] | IC50 [2] | IC50 [3] | Compound
6 nM | 7 nM | 0.601 µM | N#Cc1c(N)sc2c(F)ccc(-c3c(Cl)cc4c(N5CCCCC5)nc(OC[C@@]56CCCN5C[C@H](F)C6)nc4c3F)c12 [Example 26, 2-Amino-4-(6-chloro-8-fluoro-2-(((2R,7aS)-2-fluorotetrahydro-1H-pyrrolizin-7a(5H)-yl)methoxy)-4-(piperidin-1-yl)quinazolin-7-yl)-7-fluorobenzo[6] thiophene-3-carbonitrile]
2 nM | 2 nM | 0.043 µM | N#Cc1c(N)sc2c(F)ccc(-c3c(Cl)cc4c(N5CCCCC(F)C5)nc(OC[C@@]56CCCN5C[C@H](F)C6)nc4c3F)c12 (stereo partly drawn) [Example 27, 2-Amino-4-(6-chloro-8-fluoro-4-(3-fluoroazepan-1-yl)-2-(((2R,7aS)-2-fluorotetrahydro-1H-pyrrolizin-7a(5H)-yl)methoxy)quinazolin-7-yl)-7-fluorobenzo[b] thiophene-3-carbonitrile]
0.4 nM | 0.8 nM | 0.212 µM | N#Cc1c(N)sc2c(F)ccc(-c3c(Cl)cc4c(N5CCOC[C@H](O)C5)nc(OC[C@@]56CCCN5C[C@H](F)C6)nc4c3F)c12 [Example 30, 2-Amino-4-(6-chloro-8-fluoro-2-(((2R,7aS)-2-fluorotetrahydro-1H-pyrrolizin-7a(5H)-yl)methoxy)-4-((R)-6-hydroxy-1,4-oxazepan-4-yl)quinazolin-7-yl)-7-fluorobenzo[b] thiophene-3-carbonitrile]
1 nM | 1 nM | 0.187 µM | N#Cc1c(N)sc2c(F)ccc(-c3c(Cl)cc4c(N5CCCCCCC5)nc(OC[C@@]56CCCN5C[C@H](F)C6)nc4c3F)c12 [Example 31, 2-Amino-4-(4-(azocan-1-yl)-6-chloro-8-fluoro-2-(((2R,7aS)-2-fluorotetrahydro-1H-pyrrolizin-7a(5H)-yl)methoxy)quinazolin-7-yl)-7-fluorobenzo[b] thiophene-3-carbonitrile]
2 nM | 2 nM | 0.079 µM | N#Cc1c(N)sc2c(F)ccc(-c3c(Cl)cc4c(N5CCOC[C@@H](O)C5)nc(OC[C@@]56CCCN5C[C@H](F)C6)nc4c3F)c12 [Example 32, 2-Amino-4-(6-chloro-8-fluoro-2-(((2R,7aS)-2-fluorotetrahydro-1H-pyrrolizin-7a(5H)-yl)methoxy)-4-((S)-6-hydroxy-1,4-oxazepan-4-yl)quinazolin-7-yl)-7-fluorobenzo[b] thiophene-3-carbonitrile]
3 nM | 3 nM | 0.285 µM | N#Cc1c(N)sc2c(F)ccc(-c3c(Cl)cc4c(N5CC6COC(C6)C5)nc(OC[C@@]56CCCN5C[C@H](F)C6)nc4c3F)c12 (stereo partly drawn) [Example 33, 4-(4-(6-Oxa-3-azabicyclo[3.2.1]octan-3-yl)-6-chloro-8-fluoro-2-(((2R,7aS)-2-fluorotetrahydro-1H-pyrrolizin-7a(5H)-yl)methoxy)quinazolin-7-yl)-2-amino-7-fluorobenzo[b] thiophene-3-carbonitrile]
4 nM | 4 nM | 0.093 µM | N#Cc1c(N)sc2c(F)ccc(-c3c(Cl)cc4c(N5CCOCC(F)(F)C5)nc(OC[C@@]56CCCN5C[C@H](F)C6)nc4c3F)c12 [Example 34, 2-Amino-4-(6-chloro-4-(6,6-difluoro-1,4-oxazepan-4-yl)-8-fluoro-2-(((2R,7aS)-2-fluorotetrahydro-1H-pyrrolizin-7a(5H)-yl)methoxy)quinazolin-7-yl)-7-fluorobenzo[b] thiophone-3-carbonitrile]
4 nM | 5 nM | 0.199 µM | N#Cc1c(N)sc2c(F)ccc(-c3c(Cl)cc4c(N5CCC[C@@H](O)C5)nc(OC[C@@]56CCCN5C[C@H](F)C6)nc4c3F)c12 [Example 35, 2-Amino-4-(6-chloro-8-fluoro-2-(((2R,7aS)-2-fluorotetrahydro-1H-pyrrolizin-7a(5H)-yl)methoxy)-4-((R)-3-hydroxypiperidin-1-yl)quinazolin-7-yl)-7-fluorobenzo[b] thiophene-3-carbonitrile]
